According to patent publication US12564194B2, “Herbicide mixture, herbicidal composition, method and kit for controlling undesired vegetation” (Adama Agan Ltd., priority 2020, dated 2026):

Columns and labels:
Type in all cases: in vivo
Aegilops tauschii [1] = experiment: Soil sealing treatment pot experiment for controlling Aegilops tauschii (Example 1)
Text: (§1) Referring to an article of Colby, S. R. i.e., Calculation of the synergistic and antagonistic response of herbicide combinations. Weeds 1967, 15, pp. 20-22 (which is incorporated herein in its entirety by reference), the theoretical value E0 of a given mixture of three active ingredients may be predicted according to the following equation, then evaluating whether there is synergy.
(§2) [formula] • wherein: • E0 is the theoretical fresh weight survival rate for the mixture of pyroxasulfone, chlorotoluron and […]; • X is the measured fresh weight survival rate for pyroxasulfone used alone in the same dosage as that in the mixture; • Y is the measured fresh weight survival rate for chlorotoluron used alone in the same dosage as that in the mixture; • Z is the measured fresh weight survival rate for mesosulfuron-methyl used alone in the same dosage as that in the mixture. • E is the measured fresh weight survival rate for the mixture of pyroxasulfone, chlorotoluron and mesosulfuron-methyl. • E0-E value is calculated to evaluate the combined effect of pyroxasulfone, chlorotoluron and mesosulfuron-methyl on the selected weeds.
(§3) In this example, the herbicidal activity of a mixture of pyroxasulfone, chlorotoluron and mesosulfuron-methyl for soil sealing treatment to control Aegilops tauschii is investigated by a pot experiment method under the conditions of a glass greenhouse. This example is carried out in accordance with “NY/T 1155.4-2006 Guidelines for Indoor Bioassay Tests of Pesticides, Herbicides Part 4: Activity Determination Tests, Stem and Leaf Spray Method”.
(§4) • Pyroxasulfone: pyroxasulfone (850 g/Kg, WG) from Adama Agan LTD. • Chlorotoluron: chlorotoluron (90 wt %, WG) from Adama Agan LTD. • Mesosulfuron-methyl: Sigma (30 g/L, OD) from Bayer AG. • Test location: Greenhouse of Institute of Plant Protection, Shandong Academy of Agricultural Sciences • Cultivation of test materials: The test soil is formed by mixing the 20 cm layer loam on the ground surface and the culture medium in a ratio of 3:1 as cultivation soil.
(§5) The test weeds are cultivated in a glass greenhouse at a temperature of 15-30° C. and natural light. A certain amount of Aegilops tauschil seeds are sown in a plastic pot with a diameter of 9 cm, covering with 1-2 mm soil, and putting them in an enamel dish filled with water. The bottom infiltration method is used to water them, waiting for the water to seep to the soil surface, and then transferring to a glass greenhouse for cultivation. The agents are applied on the second day after sowing Aegilops tauschii seeds.
(§6) For each active ingredient, the multiple dilution method is used to obtain the other five lower dosages from the highest dosage. A certain amount of agent is measured by pipette or balance, adding it directly to the water, and then diluting it to the required dosage by the multiple dilution method.
(§7) Spraying treatment: ASS-4 automatic control spraying system with a fan-shaped nozzle is used indoors to spray agent, the running speed is adjusted based on nozzle pressure, flow rate, etc. to spray 50 mL of chemical solution on the actual spray area of 1.1 m^2 (equivalent to 30 liters per mu), arranging the plastic pots to be processed on the spraying table evenly, and spraying evenly. The spraying pressure is 0.35 MPa, and the flow rate of the fan-shaped nozzle is 800 mL/min, spraying in order from low dosage to high dosage. Each treatment is repeated 3 times. After spraying, let it dry for one day, placing it in a glass greenhouse, and watering it regularly to keep moist.
Application time and frequency: the experiment is conducted on the second day after sowing Aegilops tauschii seeds, and the soil is evenly sprayed. The application time is Mar. 10, 2020, with one application.
Weed investigation method and time: after applying the agent, the symptoms of weed damage (such as growth inhibition, chlorosis, deformity, etc.) are recorded in detail. […]

Lolium multiflorum Lamk = experiment: Soil sealing treatment pot experiment for controlling Lolium multiflorum Lamk (Example 2)
Aegilops tauschii [2] = experiment: Soil sealing treatment pot experiment for controlling Aegilops tauschii, more mixing ratios (Example 3)
Text: as §1, §2, §3, §4, §5, §6, §7
Weed investigation method and time: after applying the agent, the symptoms of weed damage (such as growth inhibition, chlorosis, deformity, etc.) are recorded in detail. After 35 days, the fresh weight of aerial part of the weeds in each treatment is weighed, and the measured fresh weight inhibition rate and the measured fresh weight survival rate for each treatment are calculated according to the following equations: […]

[3] = single active ingredient, summary of Table 2

Cn1nc(C(F)(F)F)c(CS(=O)(=O)C2=NOC(C)(C)C2)c1OC(F)F [pyroxasulfone, 3-[(5-difluoromethoxy-1-methyl-3-trifluoromethylpyrazol-4-yl)methylsulfonyl]-4,5-dihydro-5,5-dimethyl-1,2-isoxazole]
Measured fresh weight survival rate (%) - E (Aegilops tauschii [1]; 5.625 gai/ha, 35 days): 101.3%
Measured fresh weight survival rate (%) - E (Aegilops tauschii [1]; 11.25 gai/ha, 35 days): 97.4%
Measured fresh weight survival rate (%) - E (Aegilops tauschii [1]; 22.5 gai/ha, 35 days): 98.7%
Measured fresh weight survival rate (%) - E (Aegilops tauschii [1]; 45 gai/ha, 35 days): 79.22%
Measured fresh weight survival rate (%) - E (Aegilops tauschii [1]; 90 gai/ha, 35 days): 75.32%
Measured fresh weight survival rate (%) - E (Aegilops tauschii [1]; 180 gai/ha, 35 days): 54.55%
inhibition at 5.625 g/ha (Aegilops tauschii [1]; Aegilops tauschii, soil, 840 h, 5.625 gai/ha, 35 days, read-out: Measured fresh weight inhibition rate (%)): -1.3%
inhibition at 11.25 g/ha (Aegilops tauschii [1]; Aegilops tauschii, soil, 840 h, 11.25 gai/ha, 35 days, read-out: Measured fresh weight inhibition rate (%)): 2.6%
inhibition at 22.5 g/ha (Aegilops tauschii [1]; Aegilops tauschii, soil, 840 h, 22.5 gai/ha, 35 days, read-out: Measured fresh weight inhibition rate (%)): 1.3%
inhibition at 45 g/ha (Aegilops tauschii [1]; Aegilops tauschii, soil, 840 h, 45 gai/ha, 35 days, read-out: Measured fresh weight inhibition rate (%)): 20.8%
inhibition at 90 g/ha (Aegilops tauschii [1]; Aegilops tauschii, soil, 840 h, 90 gai/ha, 35 days, read-out: Measured fresh weight inhibition rate (%)): 24.7%
inhibition at 180 g/ha (Aegilops tauschii [1]; Aegilops tauschii, soil, 840 h, 180 gai/ha, 35 days, read-out: Measured fresh weight inhibition rate (%)): 45.5%
control effect on Aegilops tauschii (Aegilops tauschii [1]; [3]): certain effect
Measured fresh weight survival rate (%) - E (Lolium multiflorum Lamk; 5.625 gai/ha, 35 days): 69.23%
Measured fresh weight survival rate (%) - E (Lolium multiflorum Lamk; 11.25 gai/ha, 35 days): 53.85%
Measured fresh weight survival rate (%) - E (Lolium multiflorum Lamk; 22.5 gai/ha, 35 days): 51.65%
Measured fresh weight survival rate (%) - E (Lolium multiflorum Lamk; 45 gai/ha, 35 days): 20.88%
Measured fresh weight survival rate (%) - E (Lolium multiflorum Lamk; 90 gai/ha, 35 days): 0%
Measured fresh weight survival rate (%) - E (Lolium multiflorum Lamk; 180 gai/ha, 35 days): 0%
inhibition at 5.625 g/ha (Lolium multiflorum Lamk; Lolium multiflorum, soil, 840 h, 5.625 gai/ha, 35 days, read-out: Measured fresh weight inhibition rate (%)): 30.8%
inhibition at 11.25 g/ha (Lolium multiflorum Lamk; Lolium multiflorum, soil, 840 h, 11.25 gai/ha, 35 days, read-out: Measured fresh weight inhibition rate (%)): 46.1%
inhibition at 22.5 g/ha (Lolium multiflorum Lamk; Lolium multiflorum, soil, 840 h, 22.5 gai/ha, 35 days, read-out: Measured fresh weight inhibition rate (%)): 48.4%
inhibition at 45 g/ha (Lolium multiflorum Lamk; Lolium multiflorum, soil, 840 h, 45 gai/ha, 35 days, read-out: Measured fresh weight inhibition rate (%)): 79.1%
inhibition at 90 g/ha (Lolium multiflorum Lamk; Lolium multiflorum, soil, 840 h, 90 gai/ha, 35 days, read-out: Measured fresh weight inhibition rate (%)): 100%
inhibition at 180 g/ha (Lolium multiflorum Lamk; Lolium multiflorum, soil, 840 h, 180 gai/ha, 35 days, read-out: Measured fresh weight inhibition rate (%)): 100%
effect on Lolium multiflorum Lamk (Lolium multiflorum Lamk; [3]): best effect
Actual fresh weight survival rate (%) - E (Aegilops tauschii [2]; 45 gai/ha): 75.0%
Actual fresh weight survival rate (%) - E (Aegilops tauschii [2]; 90 gai/ha): 51.7%
Actual fresh weight survival rate (%) - E (Aegilops tauschii [2]; 180 gai/ha): 34.5%
inhibition at 45 g/ha (Aegilops tauschii [2]; Aegilops tauschii, soil, 45 gai/ha, read-out: Actual fresh weight inhibition rate %): 25%
inhibition at 90 g/ha (Aegilops tauschii [2]; Aegilops tauschii, soil, 90 gai/ha, read-out: Actual fresh weight inhibition rate %): 48.3%
inhibition at 180 g/ha (Aegilops tauschii [2]; Aegilops tauschii, soil, 180 gai/ha, read-out: Actual fresh weight inhibition rate %): 65.5%
